Consider 4 molecules from patent US5747523A, “Substituted ethyl α,α-diarylmethyl ether derivatives” (Guilford Pharmaceuticals Inc., priority 1996, dated 1998).

Test [1] has as its target T1, cocaine binding site of the human dopamine transporter (Homo sapiens, UniProt Q01959).
T1 construct: expressed in transfected cells
The experiment in a line: [3H]CFT binding (cocaine analogue displacement at the cocaine site of DAT). The settings on record: hDAT CHO cells; 5 nM [3H]CFT; 2 h pre-incubation at 37° C., 6 min at room temperature.

The target of test [2] is T2, human dopamine transporter (Homo sapiens, UniProt Q01959).
T2 construct: expressed in transfected cells
T2 sequence (Q01959 whole entry): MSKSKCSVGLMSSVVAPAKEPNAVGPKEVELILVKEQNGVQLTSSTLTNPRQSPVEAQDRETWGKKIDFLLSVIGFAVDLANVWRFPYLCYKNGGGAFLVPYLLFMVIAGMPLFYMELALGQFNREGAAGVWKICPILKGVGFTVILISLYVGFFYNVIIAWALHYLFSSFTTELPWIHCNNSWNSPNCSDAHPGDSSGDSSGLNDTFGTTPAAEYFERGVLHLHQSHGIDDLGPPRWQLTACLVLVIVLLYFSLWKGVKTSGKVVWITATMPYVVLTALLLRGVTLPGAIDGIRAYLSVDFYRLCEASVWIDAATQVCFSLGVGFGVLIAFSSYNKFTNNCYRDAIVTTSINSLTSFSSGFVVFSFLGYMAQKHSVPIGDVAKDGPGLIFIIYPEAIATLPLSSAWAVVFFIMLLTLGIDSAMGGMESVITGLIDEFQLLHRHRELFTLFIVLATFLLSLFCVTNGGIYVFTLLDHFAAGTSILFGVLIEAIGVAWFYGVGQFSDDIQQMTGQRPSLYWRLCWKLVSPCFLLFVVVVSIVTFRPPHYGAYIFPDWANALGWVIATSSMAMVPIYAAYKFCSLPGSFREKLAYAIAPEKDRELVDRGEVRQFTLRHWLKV
The experiment in a line: [3H]dopamine uptake inhibition in hDAT cells. Format: cell-based. The conditions noted are these: hDAT CHO cells; 100 nM [3H]dopamine; 2 h pre-incubation at 37° C., 6 min at room temperature; read-out: Effect on Dopamine Uptake (Kiuptake).

Test [3] concerns the target T2, human dopamine transporter. The experiment in a line: uptake to binding ratio (Kiuptake/Kibinding). The settings on record: hdat cho cells. The method, then:
The experimental procedures for the assay of compounds are as follows.
All assays were performed using Chinese Hamster Ovary cells stably expressing the human dopamine transporter cDNA (HDAT cells). hDAT cells were distributed in 96-well plates and grown 3 to 4 days to confluency (~10^5 cells/well) in Ham's F12 medium containing 10% fetal calf serum.

For another test, the system named is MPTP induced toxicity. The settings on record: mice; literature; cited from earlier work.
For test [4], the system named is mesolimbic dopamine neurons. The conditions noted are these: rat; literature; cited from earlier work.

T1 sequence (Q01959 whole entry): as above

For the molecule `Fc1ccc(C(OCCN2CCCCC2)c2ccc(F)cc2)cc1` [1-[2-[Bis(4-fluorophenyl)methoxy]ethyl]piperidine], the Ki stood at 211 nM in test [1] and 609 nM in test [2]. In addition, in test [3], the “Uptake to Binding Ratio (Kiuptake/Kibinding)” value is listed as 2.896.

In the case of `Fc1ccc(C(OCCN2CCCC2)c2ccc(F)cc2)cc1` [1-[2-[Bis(4-fluorophenyl)methoxy]ethyl]pyrrolidine], the Ki in test [1] amounted to 361 nM; in test [2] it was 947 nM. Also, the “Uptake to Binding Ratio (Kiuptake/Kibinding)” value in test [3] worked out at 2.623.

As to `CS(=O)(=O)O.CS(=O)(=O)O.Fc1ccc(CCCN2CCN(CCOC(c3ccc(F)cc3)c3ccc(F)cc3)CC2)cc1` [GBR 13,098], the “preventing MPTP induced toxicity” value in the test with MPTP induced toxicity is given as “effective at preventing MPTP induced toxicity”.

In the case of `Fc1ccc(C(OCCN2CCN(CCCc3ccccc3)CC2)c2ccc(F)cc2)cc1` [GBR 12909], in test [4], the “attenuation of cocaine-induced activation of mesolimbic dopamine neurons” value was “attenuate cocaine-induced activation of mesolimbic dopamine neurons”.
